# Source: patent publication US11041207B2 (priority 2015, dated 2021)
# Where “and” joins values, the source holds several entries; their conditions need not be identical. Identical values can stand only once. Entries after “also recorded” stand apart in the source; their conditions may differ.
# Legend:
# [1] = in vivo; cited from earlier work
# [2] = human, in vivo
# [3] = system: schizophrenia patients; conditions: human, in vivo
# [4] = human, in vivo; remark: listed apart in the source
# [5] = human, in vivo; remark: listed apart in the source
# [6] = parameters: species or system human; conditions: in vivo
# [7] = system: bipolar disorder patients; conditions: in vivo; cited from earlier work
Compound,effect on circulating proline [1],"fasting plasma proline, mean±SD [2]","β (95% CI), bivariate association of VPA treatment with total SANS score [3]","β, SANS total score of Val/Val versus Val/Met and Met/Met patients [3]",fasting plasma proline versus patients who did not receive VPA [4],L-serine level [5],fasting glycine level [5],patients showing improvement in negative symptoms after treatment onset [6],blood level considered the lower end of the therapeutic range [7]
CCO [Ethanol],increases circulating proline levels,–,–,–,–,–,–,–,–
"CCCC(CCC)C(=O)O [VPA, 2-propylpentanoic acid]",upregulates circulating proline; also recorded: strong up-regulator of proline levels,299.29±94.76,"−0.578 (−7.157, 6.001)",−12.17,significantly higher,117 µM,361 µM,2 out of 9 and 5 out of 7 and two and five,50 µg/mL
